Data set [1] is described as follows: Rate of hydrolysis in homogenized stomach contents. To be noted: 1.0 mM prodrug, 37 C, release of free steroid by HPLC.
Data set [2] can be described thus: Recovery of steroid glycoside and free steroid from intestinal contents and tissues after intragastric administration. To be noted: for Recovery from the cecum / Recovery from the small intestine: average of 4 animals; for site of absorption of the free steroid: free steroid given orally (control experiments, FIGURE 4). The data set is classed as in vivo, Sprague-Dawley rats. As for the experimental part:
Male, Sprague-Dawley rats (ca 250 g) were maintained on laboratory rat chow and water ad lib. These rats were fasted overnight (16 hr.) prior to administration of glucoside or free steroid. Water bottles were removed from the cages at least 30 min prior to drug administration. Prednisolone glucoside, 2, (7.5 mg) or dexamethasone glucoside, 1, (7.5 mg) was administered by gastric intubation as a solution (0.5 mL) of water/95% ethanol (3:1). Prednisolone, 4, (5.25 mg) or dexamethasone, 3, (5.1 mg) was administered as a solution (0.5 mL) of water/95% ethanol (1:1). After the appropriate interval of time -3, 4, 5 or 6 hr.- the animals were sacrificed by carbon dioxide anesthesia followed by thoractomy. The small intestine and cecum were removed and cut into segments. Contents were separated from the tissues by rinsing the segments with cold, 0.9% saline (5.0 mL). The contents were immediately diluted to 30 mL with methanol. The tissues were suspended in 0.01 M KH2P04 (5.0 mL). Then an internal standard, either prednisolone, 4, or dexamethasone, 3, depending on the experimental steroid, was added to all the samples. Both the contents and tissues were then homogenized with a Polytron Homogenizer (Brinkman Inst. Co.) at med. speed for 1-2 min. The contents were then diluted to 40 mL total volume with methanol. The tissues were diluted to 25 mL total volume with methanol. All the samples were centrifuged (5,000 g, 15 min) and then the supernatant solutions were passed through membrane filters (0.45 micrometers, Versapor 800). The samples (1.4 mL) were then diluted with 0.01 M KH2PO4 (0.6 mL) and 20 microliters of the resulting solution injected directly onto the HPLC column for analysis.

Data set [3] is described as follows: Rate of hydrolysis in homogenized cecal contents. To be noted: cecal contents; 1.0 mM prodrug, 37 C; release of free steroid by HPLC.
Text: (§1) (The entire small intestine was divided into two, equal length segments to give PSI and DSI.) Gastrointestinal contents were obtained from male, Sprague-Dawley rats (300-400 g) which had been maintained on a stock diet (Purina rat chow) and water ad libitum. The intestinal contents of each section were pooled from four animals for each assay. […] Following removal, the contents were quickly weighed, then diluted to 100 milliliters (stomach, PSI, and DSI) or 200 milliliters (cecum) with cold 0.01 M phosphate buffer, pH 7.0. […] Homogenates were then stored on ice (ca 30 min). […] The reaction was run at 37 °C in a shaking water bath. The reaction was stopped after 10, 20, or 30 min by addition of 0.2 N NaOH (0.25 milliliters).
(§2) Stomach and PSI contents were diluted to 50 mL with 0.01 M phosphate buffer, pH 7.0, DSI contents to 25 mL, and cecal contents to 200 mL, prior to homogenization. The homogenates (2.1 mL of stomach, PSI, and DSI and 1.7 mL of cecum) were added to the appropriate substrate solution (0.01 M phosphate buffer, pH 7.0) to give 1.0 mM substrate in a total volume of 2.5 mL. At various times up to 30 min, aliquots (0.3 mL) were removed and quenched with MeOH (4.7 mL). After centrifugation (5,000 g, 10 min), the samples were diluted (1:1) with 0.01 M KH2PO4 and 20 microliters of the resulting solution was injected directly onto the HPLC column for analysis.
The nature of data set [4]: Rate of hydrolysis in homogenized proximal small intestine contents. The conditions noted are these: PSI contents; 1.0 mM prodrug, 37 C; release of free steroid by HPLC.
A short description of data set [5]: KM(app) and Vmax determinations (Eadie-Hofstee plots). The class given is in vitro ADME, rat. To be noted: prodrug 0.5-48 micromolar, 0.8 mL cecal homogenate, 15 min, 37 C, release of free steroid by HPLC. As for the experimental part:
KM(app) and VMax Determinations. The KM(app)-Vmax for the hydrolysis of p-NP-glc and p-NP-gal were determined using pooled cecal homogenates (200 mL) as described above. A range of substrate (56-1000 micromolar; final volume 2.25 mL) concentrations, spanning their apparent KM, was used for each reaction. The amount of cecal homogenate used was 0.04 mL. Velocities were obtained, in duplicate, at 37 °C in a shaking water bath and the reaction stopped by addition of 0.2 N NaOH (0.25 mL) after 15 min. Release of p-nitrophenol was measured spectrophotometrically at 403 nm. Eadie-Hofstee plots were used to determine the KM(app) (micromolar) and Vmax (micromolar/min/g) of both reactions. The wet weight (g), measured immediately after removal and pooling, was used throughout.
Again, cecal contents from four rats were pooled, weighed, diluted (100 mL, 0.01 M phosphate buffer, pH 7.0) and homogenized. A range of substrate concentrations (0.5-48 micromolar, final volume 2.5 mL) spanning the apparent KM, was used for each reaction. The amount of cecal homogenate used was 0.8 mL. Reactions were run, in duplicate, at 37°C in a shaking water bath. After 15 min, the reactions were stopped by removing aliquots (0.3 mL) and quenching them with MeOH (4.7 mL). […] Again, Eadie-Hofstee plots were used to determine the KM(app) and VMax.

The nature of data set [6]: Rate of hydrolysis in homogenized distal small intestine contents. The conditions noted are these: for Sp. act. / Tot. act.: DSI contents, 1.0 mM prodrug, 37 C, release of free steroid by HPLC; for hydrolysis by DSI contents, comparison in words: homogenates of DSI contents.
Text: as §1, §2
A short description of data set [7]: Incubation with homogenized rat feces. The data set is classed as in vitro ADME. The conditions noted are these: 37 C, 0.01 M phosphate buffer pH 7.5. As for the experimental part:
Glucosides 1 and 2 (5.0 mg) were also incubated at 37 °C with homogenized rat feces (0.5 g/10 milliliters 0.01 M phosphate buffer, pH 7.5). The feces were obtained from rats maintained on a high cellulose diet. […] Aliquots (0.2 milliliters) were removed and quenched with MeOH (3.66 milliliters). After centrifugation (5,000g, 10 min), the samples were passed through membrane filters (0.45 micrometer pore, Versapor 450, Gelman Sciences, Inc.). They were then diluted (1:1) with 0.01 M KH2PO4. Twenty microliters of the resulting solution were injected directly onto the HPLC column for analysis.

The next data set can be described thus: physchem. The class given is physicochemical. As for the experimental part:
The partitioning of prodrugs and free steroids between n-octanol and an aqueous phase (0.01 phosphate buffer, pH 7.0) were determined at 37 °C. Both octanol and buffer were saturated with the relevant aqueous or organic phase before use. […] The intitial concentration of steroid was 10 mM dissolved in the organic phase. The amount of glycoside and free steroid in the aqueous phase at equilibrium was measured spectrophotometrically at 239 nm for the dexamethasone and fludrocortisone compounds and 242 nm for the prednisolone and hydrocortisone compounds. The concentration of glycoside or free steroid in the octanol phase was determined by difference.

Setting [8] is: 4 h after administration of 7.5 mg of glucoside 1.
Where [9] appears, read: 5 h after administration of 7.5 mg of glucoside 1.
Where [10] appears, read: 6 h after administration of 7.5 mg of glucoside 1.
[11] abbreviates: 0.01 m phosphate buffer, pH 7, Log P.

Read-outs that look alike come from different tables or passages of the source.

As usually defined, the Km is the substrate concentration at which the rate is half of its maximum. As a reminder, the Vmax is the rate approached at saturating substrate. In the case of `CC1CC2C3CCC4=CC(=O)C=CC4(C)C3(F)C(O)CC2(C)C1(O)C(=O)COC1OC(CO)C(O)C(O)C1O` [Compound 1, 9 alpha-Fluoro-11 beta, 17 alpha-dihydroxy-16 alpha-methyl-3, 20-dioxopregna-l, 4-dien-21-yl beta-D-glucopyranoside], the Sp. act. in data set [1] is given as 6.8 nmoles/min/g wet weight; in data set [3] it was 141 nmoles/min/g wet weight; in data set [4], 11.0 nmoles/min/g wet weight; in data set [6], 19.3 nmoles/min/g wet weight; in data set [6] (listed as glucoside 1) it was 19 nmoles/min/g wet weight. Moreover, the Tot. act. in data set [1] amounted to 0.12 µmol/min; in data set [3] it was 3.5 µmol/min; in data set [4] it was 0.07 µmol/min; in data set [6], 0.34 µmol/min. In addition, the “Recovery from the cecum” value in data set [2] (3 h after administration of 7.5 mg of glucoside 1) amounted to 0.21 mg; in data set [2] (setting [8]), 0.02 mg; in data set [2] (setting [9]) it was 0.23 mg; in data set [2] (setting [10]) it was 0.04 mg. The “Recovery from the small intestine” value in data set [2] (3 h after intragastric administration of 7.5 mg of glucoside 1) was found to be 5.61 mg^a; in data set [2] (setting [8]), 5.00 mg; in data set [2] (setting [9]), 0.24 mg; in data set [2] (setting [10]), 0.94 mg. For the same compound, the recovery at 4 h is about 60% in data set [2] (in vivo, po, rat, 7.5 mg glucoside intragastric, estimated from unhydrolyzed glucoside in lower small intestine at 4 h, read-out: part of an oral dose of glucoside that reached (was delivered to) the cecum) and 59% in data set [2] (rat, in vivo, po, 7.5 mg, 4 h after 7.5 mg glucoside, rat, read-out: administered dose recovered from the lower small intestine contents unhydrolyzed). Further, the “time to reach the colon” value in data set [2] (intragastric administration to rats) lay within 4 to 5 h. The “part of an oral dose of glucoside that reached (was delivered to) the cecum” value in data set [2] (rat, 7.5 mg glucoside intragastric, estimated from unhydrolyzed glucoside in lower small intestine at 4 h, listed as glucoside 1) is listed as “about half of the dose”. The recovery at 3 h in data set [2] (rat, in vivo, po, 3 h after oral administration, rat, read-out: dose recovered (intact) from the intestinal lumen) is 78%. Further, in data set [2] (sixteen rats per glucoside, sacrifice at 3-6 h), the “animals in which the administered dose reached the cecum by the time of sacrifice” value is reported as “eleven of the sixteen animals”. Also, the Michaelis constant (Km) in data set [5] (listed as glucoside 1) was determined as 2.5 µM. Also, in data set [5] (listed as glucoside 1), the maximal velocity (Vmax) amounted to 2.2 µM/min/g. The “hydrolysis by DSI contents, comparison in words” value was “more resistant to hydrolysis than the other prodrugs” in data set [6] and “about three times slower” in data set [6] (listed as glucoside 1). The “hydrolysis on incubation with homogenized rat feces” value in data set [7] is on record as “extensive hydrolysis”.
Take `C[C@]12C=CC(=O)C=C1CC[C@@H]1[C@@H]2[C@@H](O)C[C@@]2(C)[C@H]1CC[C@]2(O)C(=O)CO` [Compound 4, 11 beta, 17 alpha-21-Trihydroxy-3, 20-dioxpregna-1,4-diene, reference compound]: the “site of absorption of the free steroid” value in data set [2] (rat) was “absorbed almost completely from the small intestine”; in data set [2] (rat, listed as prednisolone) it was “absorbed almost exclusively from the small intestine”. In addition, the “part of the oral dose of free steroid that reached the cecum” value in data set [2] (rat, in vivo, po) is given as “less than 1%”. Also, the “free steroid recovered in the cecum, as equivalent of the administered dose” value in data set [2] (rat, in vivo, po, 5 h) is recorded as 11%. Further, in the data set “physchem” (n-octanol / 0.01 M phosphate buffer pH 7.0, 37 C, agitated 30 min, read-out: Log P), the logD at 0.5 h amounted to 1.55.
For orientation: Log P means a log measure of how a compound divides between an organic and an aqueous phase. For `C[C@]12CCC(=O)C=C1CC[C@@H]1[C@@H]2[C@@H](O)C[C@@]2(C)[C@H]1CC[C@]2(O)C(=O)CO` [Compound 6, 11 beta, 17 alpha-21-Trihydroxy-3, 20-dioxopregna-4-ene], the “Log P” value in the data set “physchem” (n-octanol / 0.01 M phosphate buffer pH 7.0, 37 C, agitated 30 min) is on record as 1.54.
In “physchem” (setting [11]), `C[C@]12CCC(=O)C=C1CC[C@H]1[C@@H]3CC[C@](O)(C(=O)CO)[C@@]3(C)C[C@H](O)[C@@]12F` [Compound 8, 9 alpha-Fluoro-11 beta, 17 alpha-21-trihydroxy-3, 20-dioxopregna-4-ene] had a logD at 0.5 h of 1.73.
As to `CC12CCC(=O)C=C1CCC1C3CCC(O)(C(=O)COC4OC(CO)C(O)C(O)C4O)C3(C)CC(O)C12F` [Compound 12, 9 alpha-Fluoro-11 beta, 17 alpha-dihydroxy-3, 20-dioxopregna-4-en-21-yl beta-D-galactopyranoside], the Sp. act. in data set [1] was 7.0 nmoles/min/g wet weight; in data set [3] it was 642 nmoles/min/g wet weight; in data set [4], 12.5 nmoles/min/g wet weight; in data set [6] it was 56.7 nmoles/min/g wet weight. The Tot. act. came to 0.01 µmol/min in data set [1], 12.9 µmol/min in data set [3], 0.01 µmol/min in data set [4] and 0.80 µmol/min in data set [6]. In addition, in data set [5] (listed as galactoside 12), the Km came out at 33.3 µM. In addition, the Vmax in data set [5] (listed as galactoside 12) was 20.6 µM/min/g.
As to `CC12C=CC(=O)C=C1CCC1C2C(O)CC2(C)C1CCC2(O)C(=O)COC1OC(CO)C(OC2OC(CO)C(O)C(O)C2O)C(O)C1O` [Compound 13, 11 beta, 17 alpha-Dihydroxy-3, 20-dioxopregna-1,4-diene-21-yl beta-D-cellbioside], the Sp. act. stood at 7.5 nmoles/min/g wet weight in data set [1], 109 nmoles/min/g wet weight in data set [3], 26.0 nmoles/min/g wet weight in data set [4] and 32.5 nmoles/min/g wet weight in data set [6]. Further, the Tot. act. in data set [1] worked out at 0.01 µmol/min; in data set [3] it was 2.2 µmol/min; in data set [4], 0.11 µmol/min; in data set [6], 0.64 µmol/min. This compound also had a logD at 0.5 h in the data set “physchem” (setting [11]) of -0.56. Moreover, in data set [6], the “hydrolysis by DSI contents, comparison in words” value is “only half that of glucoside 2 and one-fourth that of galactoside 10”.

Source of the values: patent publication EP0123485A1, “Colon-specific prodrug, the preparation and uses thereof” (priority 1983, dated 1984).
